The record followed here is patent US20130324412A1, “N-ALKOXYAMIDES OF 6-(SUBSTITUTED PHENYL)-4-AMINOPICOLINATES AND 2-(SUBSTITUTED PHENYL)-6-AMINO-4-PYRIMIDINECARBOXYLATES AND THEIR USE AS SELECTIVE HERBICIDES FOR CROPS” (DOW AGROSCIENCES LLC, priority 2009, published 2013).

What all share (assay type): in vivo
Assay [1] deals with corn (Zea mays). Nature of the assay: General postemergence herbicidal activity, corn. The settings on record: post-emergence, 336 h, read-out: ZEAMX % Visual Injury; for plant injury at 140 g/ha: 140 g ai/ha; for plant injury at 35 g/ha: 35 g ai/ha; for plant injury at 280 g/ha: 280 g ai/ha. Here is the method:
(§1) Seeds or nutlets of the desired test plant species were planted in Sun Gro MetroMix® 360 planting mixture, which typically has a pH of 6.0 to 6.8 and an organic matter content of about 30 percent, in plastic pots with a surface area of 64 square centimeters (cm^2). When required to ensure good germination and healthy plants, a fungicide treatment and/or other chemical or physical treatment was applied. The plants were grown for 7-21 days (d) in a greenhouse with an approximate 15-hour (h) photoperiod which was maintained at about 23-29° C. during the day and 22-28° C. during the night. Nutrients and water were added on a regular basis and supplemental lighting was provided with overhead metal halide 1000-Watt lamps as necessary. The plants were employed for testing when they reached the first or second true leaf stage.
(§2) A weighed amount, determined by the highest rate to be tested, of each test compound was dissolved in 4 mL of a 97:3 volume per volume (v/v) mixture of acetone and dimethyl sulfoxide (DMSO) to obtain concentrated stock solutions. […] The concentrated stock solutions obtained were diluted with 20 mL of an aqueous mixture containing acetone, water, isopropyl alcohol, DMSO, Atplus 411F crop oil concentrate, and Triton X-155 surfactant in a 48.5:39:10:1.5:1.0:0.02 v/v ratio to obtain spray solutions containing the highest application rates. Additional application rates were obtained by serial dilution of 12 mL of the high rate solution into a solution containing 2 mL of 97:3 v/v mixture of acetone and DMSO and 10 mL of an aqueous mixture containing acetone, water, isopropyl alcohol, DMSO, Atplus 411F crop oil concentrate, and Triton X-155 surfactant in a 48.5:39:10:1.5:1.0:0.02 v/v ratio to obtain ½×, ¼×, ⅛× and 1/16× rates of the high rate. Compound requirements are based upon a 12 mL application volume at a rate of 187 liters per hectare (L/ha). Formulated compounds were applied to the plant material with an overhead Mandel track sprayer equipped with 8002E nozzles calibrated to deliver 187 L/ha over an application area of 0.503 square meters (m^2) at a spray height of 18 inches (43 cm) above the average plant canopy height. Control plants were sprayed in the same manner with the solvent blank.
(§3) The treated plants and control plants were placed in a greenhouse as described above and watered by sub-irrigation to prevent wash-off of the test compounds. After 14 d, the condition of the test plants as compared with that of the untreated plants was determined visually and scored on a scale of 0 to 100 percent where 0 corresponds to no injury and 100 corresponds to complete kill.

Assay [2] has as its system velvetleaf (Abutilon theophrasti). The assay can be described thus: General postemergence herbicidal activity, velvetleaf. The settings on record: post-emergence, 336 h, read-out: ABUTH % Visual Injury; for pest or weed control at 140 g/ha: 140 g ai/ha; for pest or weed control at 35 g/ha: 35 g ai/ha; for pest or weed control at 280 g/ha: 280 g ai/ha. Here is the method: as §1, §2, §3

Assay [3] deals with lambsquarters (Chenopodium album). The assay can be described thus: General postemergence herbicidal activity, lambsquarters. The conditions noted are these: post-emergence, 336 h, read-out: CHEAL % Visual Injury; for pest or weed control at 140 g/ha: 140 g ai/ha; for pest or weed control at 35 g/ha: 35 g ai/ha; for pest or weed control at 280 g/ha: 280 g ai/ha. As to the method: as §1, §2, §3

The test system of assay [4] is wild buckwheat (Polygonum convululus). The assay can be described thus: General postemergence herbicidal activity, wild buckwheat. The conditions noted are these: post-emergence, 336 h, read-out: POLCO % Visual Injury; for pest or weed control at 140 g/ha: 140 g ai/ha; for pest or weed control at 35 g/ha: 35 g ai/ha; for pest or weed control at 280 g/ha: 280 g ai/ha. As to the method:
as §1, §2, §3

Where [5] appears, read: 70 g ai/ha, postemergence, after 14 d, 0 = no injury, 100 = complete kill.
Where [6] appears, read: 17.5 g ai/ha, postemergence, after 14 d, 0 = no injury, 100 = complete kill.
The mark [7] stands for this setting: postemergence, after 14 d, 0 = no injury, 100 = complete kill.
Where [8] appears, read: 8.75 g ai/ha, postemergence, after 14 d, 0 = no injury, 100 = complete kill.

Like-named read-outs stand apart in the source and are kept apart here.

In the case of `COc1c(Cl)ccc(-c2cc(N)c(Cl)c(C(=O)NOC(C)C)n2)c1F` [Compound 8, 4-Amino-3-chloro-6-(4-chloro-2-fluoro-3-methoxyphenyl)-N-isopropoxypicolinamide], in assay [1] (setting [5]), the plant injury at 70 g/ha is 0%. Further, the pest or weed control at 70 g/ha in assay [2] (setting [5]), in assay [3] (setting [5]) and in assay [4] (setting [5]) was 100% in each case.
For `C=C(F)CONC(=O)c1nc(-c2ccc(Cl)c(OC)c2F)cc(N)c1Cl` [Compound 37, 4-Amino-3-chloro-6-(4-chloro-2-fluoro-3-methoxyphenyl)-N-(2-fluoro-2-propenyl-oxy)picolinamide], in assay [1] (setting [6]), the plant injury at 17.5 g/ha was found to be 25%. The pest or weed control at 17.5 g/ha in assay [2] (setting [6]), in assay [3] (setting [6]) and in assay [4] (setting [6]) was 100% each time.
In the case of `COc1c(Cl)ccc(-c2cc(N)c(Cl)c(C(=O)N3CCCO3)n2)c1F` [Compound 40, (4-Amino-3-chloro-6-(4-chloro-2-fluoro-3-methoxyphenyl)pyridin-2-yl)(isoxazolidin-2-yl)methanone], the plant injury at 140 g/ha in assay [1] (setting [7]) came out at 20%. Further, the values for the pest or weed control at 140 g/ha in assay [2] (setting [7]), in assay [3] (setting [7]) and in assay [4] (setting [7]) were 95%, 100% and 100%, respectively.
As for `C=CCCONC(=O)c1nc(-c2ccc(Cl)c(OC)c2F)cc(N)c1Cl` [Compound 38, 4-Amino-N-(3-butenyloxy)-3-chloro-6-(4-chloro-2-fluoro-3-methoxyphenyl)picolinamide], the plant injury at 35 g/ha in assay [1] (setting [7]) came out at 35%. Besides, the pest or weed control at 35 g/ha in assay [2] (setting [7]), in assay [3] (setting [7]) and in assay [4] (setting [7]) was 100% in each case.
In the case of `COc1c(N)nc(-c2ccc(Cl)c(F)c2F)nc1C(=O)NO` [Compound 58, 6-Amino-2-(4-chloro-2,3-difluorophenyl)-N-hydroxy-5-methoxypyrimidine-4-carboxamide], the plant injury at 280 g/ha in assay [1] (setting [7]) turned out to be 0%. Besides, the pest or weed control at 280 g/ha in assay [2] (setting [7]) was found to be 90%; in assay [3] (setting [7]) it was 100%; in assay [4] (setting [7]), 100%.
As to `C=CCONC(=O)c1nc(-c2ccc(Cl)c(OC)c2F)cc(N)c1Cl` [Compound 59, sodium 2-propenyloxy(4-amino-3-chloro-6-(4-chloro-2-fluoro-3-methoxyphenyl)picolinoyl)amide], the plant injury at 70 g/ha in assay [1] amounted to 10%. For the same molecule, the pest or weed control at 70 g/ha is 100% in assay [2], 95% in assay [3] and 85% in assay [4].
Take `COCCOCONC(=O)c1nc(-c2ccc(Cl)c(OC)c2F)cc(N)c1Cl` [Compound 51, 4-Amino-3-chloro-6-(4-chloro-2-fluoro-3-methoxyphenyl)-N-((2-methoxyethoxy)-methoxy)picolinamide]: the plant injury at 35 g/ha in assay [1] (setting [7]) was 35%. For the same molecule, the pest or weed control at 35 g/ha in assay [2] (setting [7]), in assay [3] (setting [7]) and in assay [4] (setting [7]) was 100% in each case.
For the molecule `COc1c(Cl)ccc(-c2cc(N)c(Cl)c(C(=O)NOCC3=CCCCC3)n2)c1F` [Compound 44, 4-Amino-3-chloro-6-(4-chloro-2-fluoro-3-methoxyphenyl)-N-(cyclohexenyl-methoxy)picolinamide], the plant injury at 140 g/ha in assay [1] (setting [7]) came to 5%. The pest or weed control at 140 g/ha in assay [2] (setting [7]) turned out to be 98%; in assay [3] (setting [7]) it was 98%; in assay [4] (setting [7]), 100%.
With `COc1c(Cl)ccc(-c2cc(N)c(Cl)c(C(=O)N3CC=CCO3)n2)c1F` [Compound 52, (4-Amino-3-chloro-6-(4-chloro-2-fluoro-3-methoxyphenyl)pyridin-2-yl)(3,6-dihydro-2H-1,2-oxazin-2-yl)methanone], the plant injury at 35 g/ha in assay [1] (setting [7]) was 20%. Moreover, the pest or weed control at 35 g/ha in assay [2] (setting [7]) amounted to 100%; in assay [3] (setting [7]), 90%; in assay [4] (setting [7]), 100%.
As for `COc1c(Cl)ccc(-c2cc(N)c(Cl)c(C(=O)NOCCC#N)n2)c1F` [Compound 50, 4-Amino-3-chloro-6-(4-chloro-2-fluoro-3-methoxyphenyl)-N-(2-cyanoethoxy)picolinamide], the plant injury at 280 g/ha in assay [1] (setting [7]) amounted to 10%. The pest or weed control at 280 g/ha came to 100% in assay [2] (setting [7]), 100% in assay [3] (setting [7]) and 90% in assay [4] (setting [7]).
`C=CCONC(=O)c1nc(-c2ccc(Cl)c(OC)c2F)nc(N)c1Cl` [Compound 25, N-(2-Propenyloxy)-6-amino-5-chloro-2-(4-chloro-2-fluoro-3-methoxyphenyl)pyrimidine-4-carboxamide]: the plant injury at 8.75 g/ha in assay [1] (setting [8]) was found to be 60%. Also, the pest or weed control at 8.75 g/ha came to 90% in assay [2] (setting [8]), 100% in assay [3] (setting [8]) and 100% in assay [4] (setting [8]).
`C=CCONC(=O)c1nc(Cl)cc(N)c1Cl` [Compound 27, N-(2-Propenyloxy)-4-amino-3,6-dichloropicolinamide]: the plant injury at 280 g/ha in assay [1] (setting [7]) was 0%. In addition, the pest or weed control at 280 g/ha is 35% in assay [2] (setting [7]), 100% in assay [3] (setting [7]) and 100% in assay [4] (setting [7]).
`COc1c(Cl)ccc(-c2cc(N)c(Cl)c(C(=O)NOCC(=O)O)n2)c1F` [Compound 19, 2-(4-Amino-3-chloro-6-(4-chloro-2-fluoro-3-methoxyphenyl)picolinamidooxy)acetic acid]: the plant injury at 35 g/ha in assay [1] (setting [7]) came to 25%. Further, the pest or weed control at 35 g/ha stood at 85% in assay [2] (setting [7]), 100% in assay [3] (setting [7]) and 85% in assay [4] (setting [7]).
